The target in data set [1] is T1, Gastric inhibitory polypeptide receptor (Homo sapiens, UniProt P48546).
T1 sequence (P48546 whole entry): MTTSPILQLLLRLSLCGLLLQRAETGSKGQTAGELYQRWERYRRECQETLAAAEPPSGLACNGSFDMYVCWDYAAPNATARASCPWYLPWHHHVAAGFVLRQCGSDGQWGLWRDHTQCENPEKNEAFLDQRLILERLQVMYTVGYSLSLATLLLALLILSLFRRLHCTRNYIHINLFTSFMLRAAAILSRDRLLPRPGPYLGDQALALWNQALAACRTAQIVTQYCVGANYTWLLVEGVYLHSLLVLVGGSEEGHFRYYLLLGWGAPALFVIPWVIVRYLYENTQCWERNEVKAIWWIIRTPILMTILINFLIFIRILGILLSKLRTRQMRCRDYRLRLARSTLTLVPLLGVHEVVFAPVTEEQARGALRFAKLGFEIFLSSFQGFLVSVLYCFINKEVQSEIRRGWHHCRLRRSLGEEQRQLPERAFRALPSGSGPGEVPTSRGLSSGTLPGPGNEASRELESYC
Nature of the data set: Agonist activity at human GIPR expressed in CHO cells assessed as increase in cAMP production incubated for 30 mins by Eu-cAMP tracer based microplate reader analysis. Format: functional, cell-based. For orientation: Changes in cAMP serve as a functional read-out for many G protein-coupled receptors.

The target in data set [2] is Glucagon-like peptide 1 receptor (Homo sapiens, UniProt P43220). Nature of the data set: Agonist activity at human GLP-1R expressed in CHO cells assessed as increase in cAMP production incubated for 30 mins by Eu-cAMP tracer based microplate reader analysis. Format: functional, cell-based.
Glucagon-like peptide 1 receptor, sequence (P43220 whole entry): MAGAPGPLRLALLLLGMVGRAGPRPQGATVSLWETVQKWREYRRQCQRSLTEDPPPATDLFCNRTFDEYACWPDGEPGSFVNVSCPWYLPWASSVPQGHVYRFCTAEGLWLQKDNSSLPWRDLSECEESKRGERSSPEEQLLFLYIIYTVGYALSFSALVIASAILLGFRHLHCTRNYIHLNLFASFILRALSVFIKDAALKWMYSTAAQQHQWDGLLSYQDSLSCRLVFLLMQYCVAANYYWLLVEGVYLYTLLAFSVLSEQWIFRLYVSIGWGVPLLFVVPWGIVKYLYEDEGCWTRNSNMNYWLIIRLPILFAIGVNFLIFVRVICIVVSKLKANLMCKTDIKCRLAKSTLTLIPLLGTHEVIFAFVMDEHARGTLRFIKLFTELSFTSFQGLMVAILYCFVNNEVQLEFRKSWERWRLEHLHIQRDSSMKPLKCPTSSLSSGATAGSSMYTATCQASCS
Data set [3] has as its system Mus musculus. Nature of the data set: Anti-obesity activity in male C57/B16 mouse model of diet-induced obesity assessed as reduction in body weight at 10 nmol/kg, sc administered every 3 days for 46 days and measured every 3 days relative to control. Format: functional. Also noted: scale not given: the % may be the effect or the level left. The conditions noted are these: time 46 day.

Data set [4] relates to Mus musculus. The data set can be described thus: Hypoglycemic effect in male db/db mouse model assessed as blood glucose level at 30 nmol/kg, sc administered every 3 days for 31 days and measured 72 hrs post each dose. Format: functional, organism-based. Particulars: time 31.0 day.
Data set [5] has as its system Mus musculus. Nature of the data set: Hypoglycemic effect in male db/db mouse model assessed as reduction in body weight at 30 nmol/kg, sc administered every 3 days for 60 days and measured every 3 days. It counts as functional, organism-based. Particulars: time 60.0 day.
The subject of data set [6] is Mus musculus. Nature of the data set: Hypoglycemic effect in male db/db mouse model assessed as reduction in HbA1c level at 30 nmol/kg, sc administered every 3 days for 60 days and measured on day 18, 31, 37, 52, 58 and 60 by auto-chemistry analyzer. Format: functional, organism-based. Particulars: time 60.0 day.
The test system of data set [7] is Mus musculus. The data set can be described thus: Hypoglycemic effect in male db/db mouse model assessed as reduction in food intake at 30 nmol/kg, sc administered every 3 days for 60 days and measured every 3 days. It counts as functional, organism-based. Particulars: time 60.0 day.
Data set [8] is described as follows: Tmax in Beagle dog at 10 nmol/kg, sc administered as single dose and measured upto 168 hrs by LC-MS/MS analysis. It counts as ADME, organism-based, Canis lupus familiaris. The conditions noted are these: Beagle, in vivo, read-out: Tmax.
A short description of data set [9]: Cmax in Beagle dog at 10 nmol/kg, sc administered as single dose and measured upto 168 hrs by LC-MS/MS analysis. It counts as ADME, organism-based, Canis lupus familiaris. Particulars: Beagle, in vivo, read-out: Cmax.
A short description of data set [10]: AUC (0 to 168 hrs) in Beagle dog at 10 nmol/kg, sc administered as single dose and measured upto 168 hrs by LC-MS/MS analysis. It counts as ADME, organism-based, Canis lupus familiaris. The conditions noted are these: Beagle, in vivo.
Data set [11] is described as follows: Elimination half life in Beagle dog at 10 nmol/kg, sc administered as single dose and measured upto 168 hrs by LC-MS/MS analysis. The conditions noted are these: Beagle, in vivo, read-out: beta t1/2 (converted). Format: ADME, organism-based, Canis lupus familiaris.
Data set [12] concerns Mus musculus. Nature of the data set: Glucose-lowering effect in male ICR mouse assessed as reduction in plasma glucose AUC (0 to 72 hrs) at 30 nmol/kg, sc pretreated for 71 hrs followed by […] administration and measured after 60 mins by oral glucose tolerance test. It counts as functional, organism-based.
Data set [13] concerns Mus musculus. Nature of the data set: Reduction in body weight in male ICR mouse at 30 nmol/kg, sc measured for 4 days. It counts as functional, organism-based. Particulars: time 4.0 day.

Results on one compound are retold here after ChEMBL document CHEMBL5576038, “Design of a novel long-acting dual GLP-1/GIP receptor agonist” (Bioorg Med Chem, 2024).

Calls of active or inactive are those of the source. The rule behind the calls is not given here. Where a SMILES comes first, the peptide text is derived from it. [ ]: non-standard residue; d: D form. The star is where a group is joined. X1 = N[C@@H](CCCCNC(=O)CC[C@H](NC(=O)CCCCCCCCCCCCCCCCCCC(=O)O)C(=O)O)C(=O)NCCCC[C@H](N)C(=O)N[C@@H](CCCCNC(=O)C*)C(=O)O; Aib = CC(C)(N)C(=O)O

Consider `CC(C)C[C@H](NC(=O)[C@H](CC(C)C)NC(=O)[C@H](Cc1c[nH]c2ccccc12)NC(=O)[C@H](CCC(N)=O)NC(=O)[C@@H](NC(=O)[C@H](Cc1ccccc1)NC(=O)[C@H](CC(C)C)NC(=O)[C@H](CSCC(=O)NCCCC[C@H](NC(=O)[C@@H](N)CCCCNC(=O)[C@@H](N)CCCCNC(=O)CC[C@H](NC(=O)CCCCCCCCCCCCCCCCCCC(=O)O)C(=O)O)C(=O)O)NC(=O)[C@H](C)NC(=O)[C@H](C)NC(=O)[C@H](CCC(N)=O)NC(=O)[C@H](CCCCN)NC(=O)[C@H](CCC(=O)O)NC(=O)[C@H](CC(C)C)NC(=O)[C@H](Cc1ccc(O)cc1)NC(=O)[C@H](Cc1ccc(O)cc1)NC(=O)[C@H](CO)NC(=O)[C@H](Cc1ccc(O)cc1)NC(=O)[C@H](CC(=O)O)NC(=O)[C@H](CO)NC(=O)[C@@H](NC(=O)[C@H](Cc1ccccc1)NC(=O)[C@@H](NC(=O)CNC(=O)[C@H](CCC(=O)O)NC(=O)C(C)(C)NC(=O)[C@@H](N)Cc1ccc(O)cc1)[C@@H](C)O)[C@@H](C)O)C(C)C)C(=O)N[C@@H](C)C(=O)NCC(=O)NCC(=O)N1CCC[C@H]1C(=O)N[C@@H](CO)C(=O)N[C@@H](CO)C(=O)NCC(=O)N[C@@H](C)C(=O)N1CCC[C@H]1C(=O)N1CCC[C@H]1C(=O)N1CCC[C@H]1C(=O)N[C@@H](CO)C(N)=O` (H-Y[Aib]EGTFTSDYSYYLEKQAAC(X1)LFVQWLLAGGPSSGAPPPS-NH2), for which the EC50 (as a rule, the concentration that produces a half-maximal response) in [1] worked out at 0.06 nM; in data set [2], 0.18 nM. For the same compound, the Activity with Mus musculus [3] is 21%. The outcome with Mus musculus [4], with Mus musculus [5], in the data set with Mus musculus [6], in the data set on Mus musculus [7], in the data set with Mus musculus [12] and in the data set on Mus musculus [13] was Active. The Tmax (usually the time from dosing to the highest level) in data set [8] was 18.7 h. The Cmax (in general, the maximum level reached in the sampled fluid or tissue) in data set [9] worked out at 215 ng/mL. The AUC(0-t) (as a rule, exposure summed from dosing to a finite time, without extrapolation to infinity) at 168 h in [10] was 23700 ng·h/mL. Also, the half-life in [11] was 78.3 h.
